Structures can show the parent of a compound that is named as a salt. Where two headings read alike, the source gives them in different places.
Assays:
[1] = tested on: MLKL phosphorylation in HT29-L23 human colorectal adenocarcinoma cells; assay: MLKL Phosphorylation High-Content Assay; type: cell-based; settings: 6 h, necroptosis induced with TNFα, SMAC mimetic and Z-VAD, read-out: pMLKL (IC50)
Summary of the method: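 HT29-L23 cells were induced to necroptosis with TNFα (35 ng/mL), SMAC mimetic (700 nM) and Z-VAD (140 nM) for 6 h at 37 °C. Phospho-MLKL (S358) immunofluorescence was imaged and quantified per cell; maximal inhibition set by Nec-1s (6.25 μM), and IC50/Ymax from 4-parameter logistic fit.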

[2] = target: His-GST-TVMV-hRIPK1 (1-324) (Homo sapiens (Human), UniProt Q13546); assay: RIPK1 HTRF Binding Assay; settings: read-out: RIPK1 HTRF (IC50); FRET probe displacement, 1 h at rt
His-GST-TVMV-hRIPK1 (1-324), sequence (Q13546 1-324): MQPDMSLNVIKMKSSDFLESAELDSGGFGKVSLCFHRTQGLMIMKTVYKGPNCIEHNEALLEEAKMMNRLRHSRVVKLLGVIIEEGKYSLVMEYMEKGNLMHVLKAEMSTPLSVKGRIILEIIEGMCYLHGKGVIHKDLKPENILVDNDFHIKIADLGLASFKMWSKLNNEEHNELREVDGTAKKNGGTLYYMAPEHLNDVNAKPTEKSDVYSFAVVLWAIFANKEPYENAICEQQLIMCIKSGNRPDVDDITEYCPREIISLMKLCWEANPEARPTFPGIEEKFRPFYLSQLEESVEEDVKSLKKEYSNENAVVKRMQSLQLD

In the case of `CNC(=O)c1n[nH]c2cc(-c3cnc(OC)c(C(=O)NCc4cc(C(F)(F)F)ccc4OC)c3)ccc12` [Example 76, 6-[6-methoxy-5-({[2-methoxy-5-(trifluoromethyl)phenyl]-methyl}carbamoyl)pyridin-3-yl]-N-methyl-1H-indazole-3-carboxamide], the IC50 ([1]; Homo sapiens) is reported as 100 nM and the IC50 [2] is reported as 98 nM.

Work on `[2H]C([2H])([2H])Oc1ncc(-c2ccc3c(C(=O)NC4CC4)n[nH]c3c2)cc1C(=O)N[C@H](C)c1cccc(OC(F)(F)F)c1` [Example 202, N-cyclopropyl-6-[6-(deutero)-methoxy-5-{[(1R)-1-[3-(trifluoro-methoxy)phenyl]ethyl]carbam-oyl}pyridin-3-yl]-1H-indazole-3-carboxamide] yielded an IC50 ([1]; Homo sapiens) of 53 nM and an IC50 [2] of 36 nM.

`CNC(=O)c1n[nH]c2cc(-c3cc(C(=O)NC(C)c4ccccc4OC(F)(F)F)c(C)nc3C)ccc12` (stereo not shown) [Example 162, 6-[2,6-dimethyl-5-({1-[2-(trifluoromethoxy)phenyl]-ethyl}carbamoyl)pyridin-3-yl]-N-methyl-1H-indazole-3-carboxamide] was tested, and the IC50 ([1]; Homo sapiens) was 74 nM and the IC50 [2] was 43 nM.

Work on `CNC(=O)c1n[nH]c2cc(-c3cnc(OC)c(C(=O)NCCC(O)c4ccc(Cl)cn4)c3)ccc12` (stereo not shown) [Example 65, 6-(5-{[3-(5-chloropyridin-2-yl)-3-hydroxypropyl]carbamoyl}-6-methoxypyridin-3-yl)-N-methyl-1H-indazole-3-carbox-amide] yielded an IC50 [1] of 1.6 nM and an IC50 [2] of 8.3 nM.

In the case of `CNC(=O)c1n[nH]c2cc(-c3cnc(OC)c(C(=O)NC4CCCC(OCC(F)(F)F)C4)c3)ccc12` (stereo not shown) [Example 87, 6-(6-methoxy-5-{[3-(2,2,2-trifluoroethoxy)cyclohexyl]-carbamoyl}pyridin-3-yl)-N-methyl-1H-indazole-3-carbox-amide], the IC50 [1] is reported as 13 nM and the IC50 [2] is reported as 3.9 nM.

`CNC(=O)c1n[nH]c2cc(-c3cnc(OC)c(C(=O)NCc4cccnc4OCC4CCC4)c3)ccc12` [Example 112, 6-[5-({[2-(cyclobutylmeth-oxy)pyridin-3-yl]methyl}-carbamoyl)-6-methoxypyridin-3-yl]-N-methyl-1H-indazole-3-carboxamide] gave an IC50 ([1]; Homo sapiens) of 7.6 nM and an IC50 [2] of 4.8 nM.

Work on `CCNC(=O)c1n[nH]c2cc(-c3cnc(OC)c(C(=O)N[C@H](C)c4cccc(OC(F)(F)F)c4)c3)ccc12` [Example 232, N-[(1,1,2,2,2-deutero)ethyl]-6-[6-(deutero)methoxy-5-{[(1R)-1-[3-(trifluoromethoxy)phenyl](2,2,2-deutero)ethyl]carbamoyl}pyridin-3-yl]-1H-indazole-3-carboxamide] yielded an IC50 [1] of 26 nM and an IC50 [2] of 33 nM.

`[2H]C([2H])([2H])Oc1ncc(-c2ccc3c(C(=O)NC)n[nH]c3c2)cc1C(=O)NCC(C)(C)C(=O)OC(C)(C)C` [Example 28, tert-butyl 3-{[2-(deutero)meth-oxy-5-[3-(methylcarbamoyl)-1H-indazol-6-yl]pyridin-3-yl]form-amido}-2,2-dimethylpropanoate, TFA] was tested, and the IC50 ([1]; Homo sapiens) was 37 nM and the IC50 [2] was 17 nM.

Work on `COc1ncc(-c2ccc3c(C(=O)NC4CCN(C(C)=O)CC4)n[nH]c3c2)cc1C(=O)NCc1ccccc1OC(F)(F)F` [Example 180, N-(1-acetylpiperidin-4-yl)-6-[6-methoxy-5-({[2-(trifluoro-methoxy)phenyl]methyl}carbam-oyl)pyridin-3-yl]-1H-indazole-3-carboxamide] yielded an IC50 ([1]; Homo sapiens) of 39 nM and an IC50 [2] of 19 nM.

With `[2H]C([2H])([2H])Oc1ncc(-c2ccc3c(C(=O)NC([2H])([2H])C([2H])([2H])[2H])n[nH]c3c2)cc1C(=O)NC(C)c1cc(F)ccc1C(F)(F)F` (stereo not shown) [Example 228, N-[(1,1,2,2,2-deutero)ethyl]-6-[5-({1-[5-fluoro-2-(trifluoromethyl)-phenyl]ethyl}carbamoyl)-6-(deutero)methoxypyridin-3-yl]-1H-indazole-3-carboxamide] the IC50 ([1]; Homo sapiens) was 51 nM and the IC50 [2] was 58 nM.

In the case of `[2H]C([2H])([2H])Oc1ncc(-c2ccc3c(C(=O)NC4CC4)n[nH]c3c2)cc1C(=O)NC1CCCC(C(=O)N2CCCC2)C1` (stereo not shown) [Example 204], the IC50 ([1]; Homo sapiens) is reported as 84 nM and the IC50 [2] is reported as 12 nM.

Molecule `CNC(=O)c1n[nH]c2cc(-c3cnc(OC)c(C(=O)NCc4cccnc4OC)c3)ccc12` [Example 94, 6-(6-methoxy-5-{[(2-methoxy-pyridin-3-yl)methyl]carbam-oyl}pyridin-3-yl)-N-methyl-1H-indazole-3-carboxamide, TFA] has an IC50 [1] of 96 nM and an IC50 [2] of 9.9 nM.

`[2H]C([2H])([2H])Oc1ncc(-c2ccc3c(C(=O)NC)n[nH]c3c2)cc1C(=O)NCCC(=O)OC(C)(C)C` [Example 26, tert-butyl 3-{[2-(deutero)methoxy-5-[3-(methylcarbamoyl)-1H-indazol-6-yl]pyridin-3-yl]form-amido}propanoate] gave an IC50 ([1]; Homo sapiens) of 90 nM and an IC50 [2] of 82 nM.

With `CNC(=O)c1n[nH]c2cc(-c3cnc(OC)c(C(=O)NCCC(=O)OC(C)(C)C)c3)ccc12` [Example 74, tert-butyl 3-({2-methoxy-5-[3-(methylcarbamoyl)-1H-indazol-6-yl]pyridin-3-yl}formamido)-propanoate] the IC50 ([1]; Homo sapiens) was 62 nM and the IC50 [2] was 28 nM.

`CNC(=O)c1n[nH]c2cc(-c3cnc(OC)c(-c4nnn(Cc5ccccc5)n4)c3)ccc12` [Example 20, 6-[5-(2-benzyl-2H-1,2,3,4-tetrazol-5-yl)-6-methoxypyridin-3-yl]-N-methyl-1H-indazole-3-carboxamide] was tested, and the IC50 ([1]; Homo sapiens) was 27 nM and the IC50 [2] was 66 nM.

`CNC(=O)c1n[nH]c2cc(-c3cnc(OC)c(C(=O)NCc4c(F)cccc4OC(C)C)c3)ccc12` [Example 127, 6-[5-({[2-fluoro-6-(propan-2-yloxy)phenyl]methyl}-carbamoyl)-6-methoxy-pyridin-3-yl]-N-methyl-1H-indazole-3-carboxamide] gave an IC50 ([1]; Homo sapiens) of 3.7 nM and an IC50 [2] of 2.3 nM.

For `[2H]C([2H])([2H])Oc1ncc(-c2ccc3c(C(=O)NCC4CC4)n[nH]c3c2)cc1C(=O)NC(C)c1ccccc1OC(F)(F)F` (stereo not shown) [Example 168, N-(cyclopropylmethyl)-6-[6-(deutero)methoxy-5-({1-[2-(tri-fluoromethoxy)phenyl]ethyl}-carbamoyl)pyridin-3-yl]-1H-indazole-3-carboxamide], the IC50 ([1]; Homo sapiens) was 17 nM and the IC50 [2] was 38 nM.

Molecule `CNC(=O)c1n[nH]c2cc(-c3cnc(OC)c(C(=O)NCc4ccccc4OC(C)C)c3)ccc12` [Example 93, 6-[6-methoxy-5-({[2-(propan-2-yloxy)phenyl]methyl}-carbamoyl)pyridin-3-yl]-N-methyl-1H-indazole-3-carbox-amide] has an IC50 [1] of 8.3 nM and an IC50 [2] of 1.3 nM.

Molecule `[2H]C([2H])([2H])Oc1ncc(-c2ccc3c(C(=O)NC4CC4)n[nH]c3c2)cc1C(=O)N[C@H](C)c1cc(OC(F)(F)F)ccc1F` [Example 201, N-cyclopropyl-6-(5-{[(1R)-1-[2-fluoro-5-(trifluoromethoxy)-phenyl]ethyl]carbamoyl}-6-(deutero)methoxypyridin-3-yl)-1H-indazole-3-carboxamide] has an IC50 ([1]; Homo sapiens) of 110 nM and an IC50 [2] of 11 nM.

In the case of `CNC(=O)c1n[nH]c2cc(-c3cnc(OC)c(C(=O)NC[C@@H]4CCCC[C@H]4NC(=O)OC(C)(C)C)c3)ccc12` [Example 77, tert-butyl N-[(1R,2S)-2-[({2-methoxy-5-[3-(methylcarbam-oyl)-1H-indazol-6-yl]pyridin-3-yl}formamido)methyl]-cyclohexyl]carbamate], the IC50 [1] is reported as 78 nM and the IC50 [2] is reported as 3.8 nM.

`[2H]C([2H])([2H])Oc1ncc(-c2ccc3c(C(=O)NC4CC4)n[nH]c3c2)cc1C(=O)N[C@@H](C)c1cc(C(F)(F)F)ccc1F` [Example 194, N-cyclopropyl-6-(5-{[(1S)-1-[2-fluoro-5-(trifluoromethyl)phenyl]-ethyl]carbamoyl}-6-(deutero)meth-oxypyridin-3-yl)-1H-indazole-3-carboxamide] showed an IC50 ([1]; Homo sapiens) of 52 nM and an IC50 [2] of 67 nM.

`CNC(=O)c1n[nH]c2cc(-c3cc(C(=O)NC(C)c4cccc(OC(F)(F)F)c4)c(C)nc3C)ccc12` (single isomer, unassigned) [Example 163, 6-[2,6-dimethyl-5-({1-[3-(trifluoromethoxy)phenyl]-ethyl}carbamoyl)pyridin-3-yl]-N-methyl-1H-indazole-3-carboxamide] gave an IC50 [1] of 180 nM and an IC50 [2] of 47 nM.

In the case of `CNC(=O)c1n[nH]c2cc(-c3cnc(C)c(C(=O)NC(C)c4cccc(OC(F)(F)F)c4)c3)ccc12` (single isomer, unassigned) [Example 155, N-methyl-6-[6-methyl-5-({1-[3-(tri-fluoromethoxy)phenyl]ethyl}car-bamoyl)pyridin-3-yl]-1H-indazole-3-carboxamide], the IC50 [1] is reported as 22 nM and the IC50 [2] is reported as 13 nM.

`CNC(=O)c1n[nH]c2cc(-c3cnc(OC)c(C(=O)NCC4(c5ccccc5OC(F)(F)F)CC4)c3)ccc12` [Example 72, 6-{6-methoxy-5-[({1-[2-(tri-fluoromethoxy)phenyl]cyclo-propyl}methyl)carbamoyl]-pyridin-3-yl}-N-methyl-1H-indazole-3-carboxamide] gave an IC50 ([1]; Homo sapiens) of 400 nM and an IC50 [2] of 390 nM.

In the case of `[2H]C([2H])([2H])Oc1ncc(-c2ccc3c(C(=O)NC)n[nH]c3c2)cc1C(=O)NC(C)c1cc(F)ccc1C(F)(F)F` (stereo not shown) [Example 36, 6-[5-({1-[5-fluoro-2-(trifluoro-methyl)phenyl]ethyl}carbamoyl)-6-(deutero)methoxypyridin-3-yl]-N-methyl-1H-indazole-3-carbox-amide], the IC50 ([1]; Homo sapiens) is reported as 20 nM and the IC50 [2] is reported as 9.3 nM.

Molecule `[2H]C([2H])([2H])Oc1ncc(-c2ccc3c(C(=O)NC([2H])([2H])C([2H])([2H])[2H])n[nH]c3c2)cc1C(=O)N[C@H](c1cc(OC(F)(F)F)ccc1F)C([2H])([2H])[2H]` [Example 1] has an IC50 ([1]; Homo sapiens) of 6.1 nM and an IC50 [2] of 17 nM.

Source: patent US12172975B2, “1H-indazole carboxamides as receptor-interacting protein kinase 1 inhibitors (RIPK1)” (BRISTOL-MYERS SQUIBB COMPANY, priority 2018, dated 2024)
